Patent US20130203662A1, “Mini-Hepcidin Peptides and Methods of Using Thereof” (priority 2008, published 2013)
Square brackets hold non-standard residues; d marks the D form. Peptide text beside a SMILES is read from it.

Tests used:
[1] = target: T1, ferroportin fused to green fluorescent protein (ECR293/Fpn-GFP cells) (Mus musculus, UniProt Q9JHI9); assay: Flow cytometry of ferroportin-GFP internalization and degradation in ECR293/Fpn-GFP cells; format: cell-based; settings: concentration eliciting 50% of maximal loss of fluorescence generated by reference Hep25; 24 hours; read-out: EC50 (the source's name)
T1 sequence (Q9JHI9 1-570): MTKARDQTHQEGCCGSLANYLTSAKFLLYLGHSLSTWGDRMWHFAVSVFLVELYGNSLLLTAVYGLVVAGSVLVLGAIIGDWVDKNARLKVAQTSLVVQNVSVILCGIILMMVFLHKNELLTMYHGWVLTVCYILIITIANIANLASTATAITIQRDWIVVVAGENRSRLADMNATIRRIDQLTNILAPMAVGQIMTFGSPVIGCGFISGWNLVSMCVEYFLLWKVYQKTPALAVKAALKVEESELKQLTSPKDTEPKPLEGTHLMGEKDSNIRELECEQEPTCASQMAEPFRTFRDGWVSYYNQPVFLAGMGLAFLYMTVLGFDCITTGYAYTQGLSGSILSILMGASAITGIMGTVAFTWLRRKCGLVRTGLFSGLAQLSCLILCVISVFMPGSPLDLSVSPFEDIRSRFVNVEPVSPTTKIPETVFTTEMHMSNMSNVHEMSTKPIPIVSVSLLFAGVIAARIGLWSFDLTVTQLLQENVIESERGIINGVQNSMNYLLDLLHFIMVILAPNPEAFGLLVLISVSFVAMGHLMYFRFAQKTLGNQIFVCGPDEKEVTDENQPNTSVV
Procedure: In vitro activity may be measured by the dose-dependent loss of fluorescence of cells engineered to display ferroportin fused to green fluorescent protein as in Nemeth et al. (2006) Blood 107:328-33. […]
FLOW CYTOMETRY. The activity of peptides of the present invention was measured by flow cytometry as previously described. See Nemeth et al. (2006) Blood 107:328-333, which is herein incorporated by reference. ECR293/Fpn-GFP, a cell line stably transfected with a ponasterone-inducible ferroportin construct tagged at the C-terminus with green fluorescent protein was used. See Nemeth et al. (2004) Science 306:2090-2093, which is herein incorporated by reference. Briefly, the cells were plated on poly-D-lysine coated plates in the presence of 20 μM FAC, with or without 10 μM ponasterone. After 24 hours, ponasterone was washed off, and cells were treated with peptides for 24 hours. Cells were then trypsinized and resuspended at 1×10^6 cells/ml, and the intensity of green fluorescence was analyzed by flow cytometry. […] Cells not induced with ponasterone to express Fpn-GFP were used to establish a gate to exclude background fluorescence. Cells induced with ponasterone, but not treated with any peptides, were used as the positive control. Each peptide was tested over the range of concentrations (0, 0.01, 0.03, 0.1, 0.3, 1, 3 and 10 μM). Each peptide treatment was repeated independently 3 to 6 times.

[2] = system: C57/B16J mice; assay: Serum iron assay in mice after peptide administration; format: in vivo; settings: i.p., 4 hours
Procedure: Serum iron assay. The decrease in serum iron after peptide administration is the principal measure of hepcidin activity. Thus, as provided herein, the hepcidin activity of selected peptides of the present invention were assayed in vivo by measuring serum iron in test subjects. […] Two weeks before the experiment, the mice were switched to a diet containing about 2-4 ppm iron (Harlan Teklad, Indianapolis, Ind.) in order to suppress endogenous hepcidin. Peptide stocks were diluted to desired concentrations in sterile phosphate buffered saline (PBS) or other diluents as described next. […] Mice were sacrificed 4 hours later, blood was collected by cardiac puncture, and serum was separated using MICROTAINER tubes (Becton Dickinson, Franklin Lakes, N.J.). Serum iron was determined by using a colorimetric assay (Diagnostic Chemicals, Oxford, Conn.), which was modified for the microplate format so that 10 μl serum was used per measurement. The results were expressed as the percentage of decrease in serum iron when compared with the average value of serum iron levels in PBS-treated mice.

SMILES | DC50 [1] | serum iron ([2]; 50 μg per mouse in PBS, vs PBS) | serum iron ([2]; 20 nmoles in PBS) | serum iron ([2]; 200 nmoles in PBS)
CC[C@@H](C)[C@@H](NC(=O)[C@H](N)Cc1ccccc1)C(=O)N[C@H](CS)C(=O)N[C@@H](C(=O)N1CCC[C@@H]1C(=O)N[C@H](Cc1ccccc1)C(=O)N[C@H](Cc1c[nH]cn1)C(=O)N[C@@H](C(=O)N[C@H](CC(=O)O)C(N)=O)[C@H](C)O)[C@H](C)CC [Pr12] | 0.9 µM | significant decrease in serum iron after 4 hours | – | –
CC[C@@H](C)[C@@H](NC(=O)[C@H](N)Cc1ccccc1)C(=O)N[C@H](CS)C(=O)N[C@@H](C(=O)N1CCC[C@@H]1C(=O)N[C@H](Cc1ccccc1)C(=O)N[C@H](Cc1c[nH]cn1)C(N)=O)[C@H](C)CC [riHep7ΔDT] (H-[dF][dI][dC][dI][dP][dF][dH]-NH2; N-terminus assumed) | 0.15 µM | – | slightly but not significantly reduced serum iron concentrations | serum iron concentrations significantly lower than those achieved after injection of PBS
